{
  "source": "patent US20220135591A1",
  "about": "“HETEROCYCLIC COMPOUNDS AS INHIBITORS OF MONOACYLGLYCEROL LIPASE (MAGL)” (Hoffmann-La Roche Inc., priority 2019, published 2022)",
  "data": [
    {"molecular_target": "T1, MAGL (recombinant wild-type) (Homo sapiens, UniProt Q99685)", "T1 sequence (Q99685 1-303)": "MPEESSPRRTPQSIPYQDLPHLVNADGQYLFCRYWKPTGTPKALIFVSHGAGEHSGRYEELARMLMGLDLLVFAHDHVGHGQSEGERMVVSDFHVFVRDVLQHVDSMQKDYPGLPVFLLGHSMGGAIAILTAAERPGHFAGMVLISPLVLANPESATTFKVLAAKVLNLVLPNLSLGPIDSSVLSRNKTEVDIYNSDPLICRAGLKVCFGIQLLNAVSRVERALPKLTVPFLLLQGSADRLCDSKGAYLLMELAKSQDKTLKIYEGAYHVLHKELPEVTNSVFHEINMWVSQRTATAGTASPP", "experiment": "4-NPA assay: MAGL inhibitory activity by hydrolysis of 4-nitrophenylacetate, absorbance at 405 nm", "type": "biochemical", "settings": "4-NPA assay (values without footnote [b])", "summary_of_the_method": "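Final assay: 1 nM MAGL and 300 μM 4-nitrophenylacetate in 50 mM Tris, 1 mM EDTA, at RT. Compounds (25 μM–1.7 nM, 3-fold steps) were preincubated 15 min with enzyme. A405 was read 5 min after substrate addition and again after 80 min; activity was taken as the difference between reads.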", "units": {"IC50": "nM"}, "values": [
      {"smiles": "O=C(c1ccc(N2CCC3(C2)CC3(F)F)cc1)N1CCN(c2nc3nc(Cl)ccc3o2)CC1", "note": "(stereo not drawn) [Example 202, [4-(5-chloro-[1,3]oxazolo[4,5-b]pyridin-2-yl)piperazin-1-yl]-[4-(2,2-difluoro-5-azaspiro[2.4]heptan-5-yl)phenyl]methanone]", "IC50": 14},
      {"smiles": "O=C(c1ccc(N2CC3(CCC3(F)F)C2)cc1)N1CCN(c2nc3nc(Cl)ccc3o2)CC1", "note": "[Example 203, [4-(5-chloro-[1,3]oxazolo[4,5-b]pyridin-2-yl)piperazin-1-yl]-[4-(7,7-difluoro-2-azaspiro[3.3]heptan-2-yl)phenyl]methanone]", "IC50": 35},
      {"smiles": "CC(C)(C)OC1CN(c2ccc(C(=O)N3CCN(c4nc5nc(Cl)ccc5o4)CC3)cc2)C1", "note": "[Example 204, (4-(3-(tert-butoxy)azetidin-1-yl)phenyl)(4-(5-chlorooxazolo[4,5-b]pyridin-2-yl)piperazin-1-yl)methanone]", "IC50": 18},
      {"smiles": "CCC(C)(C)OC1CN(c2ccc(C(=O)N3CCN(c4nc5nc(Cl)ccc5o4)CC3)cc2)C1", "note": "[Example 205, (4-(5-chlorooxazolo[4,5-b]pyridin-2-yl)piperazin-1-yl)(4-(3-(tert-pentyloxy)azetidin-1-yl)phenyl)methanone]", "IC50": 5},
      {"smiles": "Cc1ccc2oc(N3CCN(C(=O)c4ccc(N5CC6(CCC6(F)F)C5)cc4)CC3)nc2n1", "note": "[Example 206, (4-(5,5-difluoro-2-azaspiro[3.3]heptan-2-yl)phenyl)(4-(5-methyloxazolo[4,5-b]pyridin-2-yl)piperazin-1-yl)methanone]", "IC50": 61},
      {"smiles": "Cc1ccc2oc(N3CCN(C(=O)c4ccc(N5CC(OC(C)C(F)(F)F)C5)cc4F)CC3)nc2n1", "note": "(stereo not drawn) [Example 207, (2-fluoro-4-(3-((1,1,1-trifluoropropan-2-yl)oxy)azetidin-1-yl)phenyl)(4-(5-methyloxazolo[4,5-b]pyridin-2-yl)piperazin-1-yl)methanone]", "IC50": 16},
      {"smiles": "CC(OC1CN(c2ccc(C(=O)N3CCN(c4nc5nc(Cl)ccc5o4)CC3)cc2)C1)C(F)(F)F", "note": "(stereo not drawn) [Example 208, (4-(5-chlorooxazolo[4,5-b]pyridin-2-yl)piperazin-1-yl)(4-(3-((1,1,1-trifluoropropan-2-yl)oxy)azetidin-1-yl)phenyl)methanone]", "IC50": 16},
      {"smiles": "CCOC1(C)CN(c2ccc(C(=O)N3CCN(c4nc5nc(Cl)ccc5o4)CC3)cc2)C1", "note": "[Example 209, (4-(5-chlorooxazolo[4,5-b]pyridin-2-yl)piperazin-1-yl)(4-(3-ethoxy-3-methylazetidin-1-yl)phenyl)methanone]", "IC50": 235},
      {"smiles": "Cc1ccc2oc(N3CCN(C(=O)c4ccc(N5CC(OC(C)C(F)(F)F)C5)c(F)c4)CC3)nc2n1", "note": "(stereo not drawn) [Example 210, (3-fluoro-4-(3-((1,1,1-trifluoropropan-2-yl)oxy)azetidin-1-yl)phenyl)(4-(5-methyloxazolo[4,5-b]pyridin-2-yl)piperazin-1-yl)methanone]", "IC50": 24},
      {"smiles": "Cc1ccc2oc(N3CCN(C(=O)c4ccc(N5CC(OC(C)C(F)(F)F)C5)cc4C)CC3)nc2n1", "note": "(stereo not drawn) [Example 211, (2-methyl-4-(3-((1,1,1-trifluoropropan-2-yl)oxy)azetidin-1-yl)phenyl)(4-(5-methyloxazolo[4,5-b]pyridin-2-yl)piperazin-1-yl)methanone]", "IC50": 346},
      {"smiles": "Cc1ccc2oc(N3CCN(C(=O)c4c(F)cc(N5CC(OC(C)C(F)(F)F)C5)cc4F)CC3)nc2n1", "note": "(stereo not drawn) [Example 212, (2,6-difluoro-4-(3-((1,1,1-trifluoropropan-2-yl)oxy)azetidin-1-yl)phenyl)(4-(5-methyloxazolo[4,5-b]pyridin-2-yl)piperazin-1-yl)methanone]", "IC50": 1130},
      {"smiles": "Cc1ccc2oc(N3CCN(C(=O)c4ccc(N5CC(OC(C)C(F)(F)F)C5)cc4Cl)CC3)nc2n1", "note": "(stereo not drawn) [Example 213, (2-chloro-4-(3-((1,1,1-trifluoropropan-2-yl)oxy)azetidin-1-yl)phenyl)(4-(5-methyloxazolo[4,5-b]pyridin-2-yl)piperazin-1-yl)methanone]", "IC50": 99}
    ]}
  ]
}
